Data reported in PMC9828254, “Identification of Dihydroorotate Dehydrogenase Inhibitors Using the Cell Painting Assay” (Chembiochem, 2022).
“Also recorded” adds a separate entry of the source.

Key:
[1] = test system: HCT116 cells; assay: DHODH rescue assay / cell growth (cell confluence, IncuCyte); assay type: cell-based; settings: 1.5 mM OA, 96 h, 2, 6, 7 at 10 μM, 4 at 30 μM
Method: Figure 3 Influence of compounds on cell growth and DHODH activity. (A–C) HCT116 cells were treated with the compounds or DMSO as a control in presence or absence of 100 μM uridine. Cell confluence as a measure of cell growth was monitored over 96 h using IncuCyte ZOOM/S3. (A) Brequinar (BRQ). (B) Myxothiazol (MXT). […] (D–E) In vitro DHODH activity. […] (F) Influence of compound 7 on complex III activity. All data are mean values of three biological replicates (n=3)±SD.
DHODH rescue assay: 2,000 HCT116 or U2OS cells per well were seeded in a clear 96‐well plate and incubated as described above overnight prior to treatment. The next day, the medium was replaced by fresh compound or DMSO containing medium supplemented with control solvent or uridine (100 μM), OA (1.5 mM) or DHO (1.5 mM). Cell growth was monitored every 2 h for a total of 96 h after treatment start using an IncuCyte S3 (Essen BioScience). The cell confluence was quantified as a measure of cell growth using the IncuCyte S3 software (Essen BioScience).

[2] = molecular target: T1, complex III (Bos taurus, UniProt P00157); assay: MitoTox complex II+III OXPHOS activity assay kit; assay type: biochemical; settings: bovine heart mitochondria; Figure 3F
T1 construct: tissue Abcam ab109905; host or cells: bovine heart mitochondria
Method: MitoTox™ complex II+III OXPHOS activity assay kit: The assay was performed using the MitoTox™ Complex II+III OXPHOS Activity Assay Kit (ab109905, Abcam) according to the manufacturer's instructions. Compounds or DMSO as a control was mixed with succinate solution (electron donor) and oxidized cytochrome c (electron acceptor) in the presence of complex IV inhibitor […] (2 mM, 60168, Sigma Aldrich) and complex I inhibitor Rotenone (12 μM, R8875, Sigma Aldrich). To start the electron transfer reaction, bovine heart mitochondria (0.03 mg/mL) were added to the mixture and conversion of oxidized cytochrome c into the reduced form was monitored for 5 min at 550 nm using the Tecan Spark plate reader.

[3] = molecular target: T2, Human DHODH (Homo sapiens, UniProt Q02127); assay: DHODH enzymatic assay (DCPIP reduction); assay type: biochemical; settings: 10 μM compound
T2 construct: 40 μL of purified DHODH (aa31–395, final concentration: 1.25 μg/mL); made in house; host or cells: E. coli BL21 (DE3)
T2 sequence (Q02127 31-395): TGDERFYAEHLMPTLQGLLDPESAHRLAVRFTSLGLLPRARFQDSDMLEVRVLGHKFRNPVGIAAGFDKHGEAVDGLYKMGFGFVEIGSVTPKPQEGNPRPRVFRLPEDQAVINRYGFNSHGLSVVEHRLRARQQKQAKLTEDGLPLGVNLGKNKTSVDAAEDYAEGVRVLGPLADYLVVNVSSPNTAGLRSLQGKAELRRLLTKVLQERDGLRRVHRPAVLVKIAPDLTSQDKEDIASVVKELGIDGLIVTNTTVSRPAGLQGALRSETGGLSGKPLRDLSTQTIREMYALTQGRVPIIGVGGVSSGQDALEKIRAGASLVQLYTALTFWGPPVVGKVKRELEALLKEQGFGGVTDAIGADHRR
Method: Expression was induced by adding 0.8 mM IPTG (AppliChem, A1008,0025) and temperature was reduced to 28 °C for 6 hours. […] The clarified supernatant was loaded to the column and washed with PBS (1 mL/min) for 2 h, followed by elution with 10 mM L‐glutathione (Sigma Aldrich, G4251) in PBS. The GST tag was not removed for further analysis. Factions containing hDHODH‐GST protein were pooled, concentrated with centrifugal filters (Ultra‐50 K, Merck Millipore, UFC905096) and shock‐frozen for further analysis. Protein concentration was determined by Bradford measurement.
DHODH enzymatic assay: Enzymatic activity of DHODH was assessed by monitoring the reduction of 2,6‐dichlorophenolinindophenol (DCPIP), which is coupled to the oxidation of dihydroorotate by DHODH. […] The reaction was initiated by adding 50 μL mastermix (2 mM L‐dihydroorotic acid, 0.2 mM decylubiquonone, 0.12 mM 2,6 dichlorphenolindophenol (DCPIP) in assay buffer). DCPIP reduction was monitored at λ=600 nm using Tecan Spark plate reader for 20 min.

[4] = test system: U2OS cells; assay: Cell Painting assay (CPA), morphological fingerprints; assay type: cell-based, human; settings: Homo sapiens, U2OS; Conc 10 μM; 20 h; read-out: Cell count [%]
Method: Therefore, the definition of bioactivity clusters is crucial for proper hypothesis generation for uncharacterized small molecules that are subjected to the CPA and requires thorough inspection of the CPA fingerprints of reference compounds.[[2b], [9], [10]] […] For the CPA, human osteosarcoma U2OS cells were treated with compounds for 20 h prior to detection of cellular components and compartments (DNA, RNA, mitochondria, Golgi, endoplasmic reticulum (ER), actin, plasma membrane) using six different dyes. Morphological features are extracted and differences to the control (cells that were treated with DMSO) are expressed as Z scores. The CPA fingerprints used in this study compile Z scores for 579 features. […] Myxothiazol is an inhibitor of complex III of the mitochondrial electron transport chain.[15] Whereas de novo biosynthesis of pyrimidines takes place in the cytosol, DHODH is the only enzyme of the pyrimidine biosynthesis pathway that is localized at the inner mitochondrial membrane.[16] DHODH catalyzes the oxidation of dihydroorotate (DHO) to orotate by transferring electrons from DHO via the cofactor FMN to ubiquinone to yield ubiquinol. Electrons from ubiquinol are transferred further to complex III (cytochrome b,c1 complex), thereby recycling […] that is required for DHODH activity. In this way, pyrimidine biosynthesis is tightly coupled to the activity of complex III, which ensures that pyrimidine nucleotides and, thus, DNA and RNA are synthesized only if cells are supplied with sufficient amount of ATP via the mitochondrial respiratory chain. Alternatively, cells can replenish their pyrimidine pools via the salvage pathway by uptake of circulating pyrimidines.[5] Whereas proliferating cells rely on de novo pyrimidine biosynthesis to meet the high demand for nucleotides, the salvage pathway is used by resting and fully differentiated cells.[5]
The cell painting assay: The Cell Painting assay[25] was performed as described previously.[[9a], [26]] U2OS medium (5 μL) was added to each well of a 384‐well plate (PerkinElmer CellCarrier‐384 Ultra) prior to addition of 1,600 U2OS cells per well and incubation for 4 h at 37 °C. Standard stock concentration of compounds was 10 mM. […] Compounds were added to the cells using the Echo 520 acoustic dispenser (Labcyte) followed by incubation for 20 h at 37 °C. Subsequently, mitochondria were stained with 0.1 μg/μL Mito Tracker Deep Red for 30 min at 37 °C in the dark. Cells were fixed using 3.7 % formaldehyde (in PBS) for 20 min at 37 °C in the dark. Cells were washed three times using PBS before permeabilization using Triton X‐100 for 15 min 37 °C in the dark. After three additional washing steps, 25 μL of a staining solution were added to each well, which contained 1 % BSA, 5 μL/mL Phalloidin (Alexa594 conjugate, Thermo Fisher Scientific, A12381), 25 μg/mL Concanavalin A (Alexa488 conjugate, Thermo Fisher Scientific, Cat. No. C11252), 5 μg/mL Hoechst 33342 (Sigma, Cat. No. B2261‐25 mg), 1.5 μg/mL WGA‐Alexa594 conjugate (Thermo Fisher Scientific, Cat. No. W11262) and 1.5 μM SYTO 14 solution (Thermo Fisher Scientific, Cat. No. S7576). Plates were incubated for 30 min at 37 °C in the dark and washed three times with PBS. Plates were sealed and centrifuged for 1 min at 500 rpm. The plates were prepared in triplicates with shifted layouts to reduce plate effects and imaged using a Micro XL High‐Content Screening System (Molecular Devices) in 5 channels (DAPI: Ex350‐400/Em410‐480; FITC: Ex470‐500/Em510‐540; Spectrum Gold: Ex520‐545/Em560‐585; TxRed: Ex535‐585/Em600‐650; Cy5: Ex605‐650/Em670‐715) with 9 sites per well and 20× magnification (binning 2).
Generated images were processed with the CellProfiler package[27] (https://cellprofiler.org, version 3.0.0) on a computing cluster of the Max Planck Society to extract 1716 cell features. The data was then further aggregated as medians per well (9 sites→1 well), then over the three replicates.

Compound: CC(=O)Oc1c(C[C@]23CCOC4(CCCCC4)C2=Nc2ccc(Br)cc23)occc1=O [Compound 7]
- rescue of cell growth by orotate (OA) [1]: relieved
- influence on complex III activity [2]: did not impair
- influence on in vitro DHODH activity, in words [3]: inactive; also recorded: did not have any influence
- viability at 10 µM [4]: 93%
